Read-outs that look alike come from different tables or passages of the source.
Key:
recombinant O.lotOBP6 = assay: Fluorescence competitive binding assay with 1-NPN probe; parameters: species or system Odontothrips loti; conditions: for IC50: 1× PBS pH 7.2~7.4, room temperature, triplicates, read-out: IC50 (concentration of ligand halving the initial fluorescence value of 1-NPN)
Protocol: Fluorescence was measured on a F-7000 fluorescence spectrophotometer (Hitachi, Tokyo, Japan) at room temperature with a 1 cm light path quartz cuvette and 10 nm slits for both excitation and emission. The fluorescent probe N-phenyl-1-naphthylamine (1-NPN) was excited at 337 nm, and emission was recorded between 370 and 520 nm. The pure protein was dissolved with 1× PBS (pH 7.2~7.4) at a final concentration of 2 μM. The ligands and 1-NPN were dissolved in methanol at the concentration of 1 mM.
To measure the affinity of 1-NPN to O.lotOBP6, a 2 μM solution of protein in 2 mL 1× PBS was titrated with 1-NPN to final concentrations of 0.25~8 μM. The affinity of ligands was measured by the titration of the O.lotOBP6/1-NPN complex at the concentration of 2 μM by adding ligand to final concentrations of 0.25~10 μM. The dissociation constants of the competitors were calculated by the equation Ki = IC50/(1 + [1-NPN]/K1-NPN), where IC50 is the concentration of ligands halving the initial fluorescence value of 1-NPN, [1-NPN] is the free concentration of 1-NPN, and K1-NPN is the dissociation constant of the complex O.lotOBP6/1-NPN. Experiments were performed in triplicates. GraphPad Prism 7.0 was used to perform nonlinear regression analysis on the standard curve and the dissociation curve.

[1] = system: Megalurothrips usitatus adults; parameters: method as in PMID 32246573; conditions: field trials, cited from earlier work
adult O. loti = assay: Y-tube olfactometer choice tests with volatiles; type: in vivo, Odontothrips loti; conditions: volatile 10 ng/μL in paraffin oil vs paraffin oil control, chi-square test; for Response of male adult O. loti in Y-tube olfactometer: male adults
Protocol: In the behavioral assays, the female and male adults were reared together, while 3–5 days old female and male adults were collected separately by reproductive morphology. Eleven ligands with high binding affinities to O.lotOBP6/1-NPN complex based on fluorescence binding assays were used in the test. The responses of female and male O. loti to 11 volatiles (Table 3) were measured derived from M. sativa (Liu Y-Q, unpublished data) or semiochemicals previously used in Y-tube olfactometer bioassays. The glass Y-tube consisted of a stem and two arms (10 cm long, 1 cm in diameter) separated from each other at an angle of 75°. Air drawn into the olfactometer was first purified by active charcoal, moistened by distilled water in a gas-washing bottle, and split into two streams, with a flow rate of 50 mL min^−1. Two glass flasks (100 mL) provided test and control odor sources. Connections between the components of the olfactometer apparatus were made with Teflon tubes. Olfactometer experiments were carried out in a dark room at 26 ± 1 °C. Light was provided by a LED light (28 W), which was placed at the Y end of the olfactometer. The volatile sample of 10 ng/μL was dissolved in paraffin oil as the test odor source, with the control sample being paraffin oil. A single O. loti was introduced to the base tube of the Y-tube and observed for 5 min. When the test thrip entered a half-length of either arm of the Y-tube and stayed for 1 min, the choice was recorded. […] After five test thrips were tested, the odor sources were swapped to avoid directional effects in the apparatus. To avoid the effects of travelling residual odors of test thrips, ten test thrips tests were followed by a new Y-tube, which was cleaned with 75% ethanol and oven dried at 60 °C for 30 min. Sixty biological replicates were carried out for each female or male treatment. Results were analyzed by Chi-square test using IBM SPSS 22.

[2] = O.lotOBP6/1-NPN complex 2 μM, calculated from IC50, read-out: Ki (dissociation constant, Ki = IC50/(1 + [1-NPN]/K1-NPN))
[3] = competitive fluorescence binding curves, read-out: Ki (high binding affinities with the O.lotOBP6/1-NPN complex)

For `c1ccc(Nc2cccc3ccccc23)cc1` [1-NPN, N-phenyl-1-naphthylamine, reference compound], the Kd (recombinant O.lotOBP6; 2 μM protein titrated with 1-NPN 0.25~8 μM, Scatchard equation, read-out: Dissociation constant of recombinant O.lotOBP6 protein to 1-NPN) was 1050 nM.

Work on `CCCCC(CC)CO` (centres unmarked) [2-Ethyl-1-hexanol] yielded an IC50 (recombinant O.lotOBP6; O.lotOBP6/1-NPN complex 2 μM) of 3.8 ± 0.31 µM, a Ki (recombinant O.lotOBP6; [2]) of 1570 ± 130 nM and a Ki (recombinant O.lotOBP6; [3]) of under 10000 nM.

Molecule `C=CCCC=O` [4-Pentenal] has an IC50 (recombinant O.lotOBP6; O.lotOBP6/1-NPN complex 2 μM) of over 50 µM.

In the case of `CC(=O)OC/C=C(\C)CC/C=C(\C)CCC=C(C)C` [(2E,6E)-farnesyl acetate], the “Duration of attraction effect” value ([1]; dose of 60 μg) is given as “at least 6 days” and the “Attractiveness to adults compared to the control” value [1] is given as “significantly more attractive”.

Molecule `CC/C=C\CCOC(=O)CCC` [(Z)-3-Hexenyl butyrate] has an IC50 (recombinant O.lotOBP6; O.lotOBP6/1-NPN complex 2 μM) of 5.58 ± 0.38 µM, a Ki (recombinant O.lotOBP6; [2]) of 2300 ± 160 nM and a Ki (recombinant O.lotOBP6; [3]) of under 10000 nM. The “Response of male adult O. loti in Y-tube olfactometer” value (adult O. loti) was “significantly attracted”.

In the case of `O=Cc1ccccc1` [Benzaldehyde], the IC50 (recombinant O.lotOBP6; O.lotOBP6/1-NPN complex 2 μM) is reported as 1.62 ± 0.12 µM, the Ki (recombinant O.lotOBP6; [2]) is reported as 670 ± 50 nM and the Ki (recombinant O.lotOBP6; [3]) is reported as under 10000 nM.

With `Cc1cc(C(C)(C)C)c(O)c(C(C)(C)C)c1` [Butylated hydroxytoluene] the IC50 (recombinant O.lotOBP6; O.lotOBP6/1-NPN complex 2 μM) was over 50 µM.

Molecule `C=C(C)[C@H]1CC=C(C)CC1` [D-Limonene] has an IC50 (recombinant O.lotOBP6; O.lotOBP6/1-NPN complex 2 μM) of over 50 µM.

`CCOC(=O)c1cccnc1` [Ethyl nicotinate] gave an IC50 (recombinant O.lotOBP6; O.lotOBP6/1-NPN complex 2 μM) of over 50 µM.

Work on `CC12CCC(CC1)C(C)(C)O2` [Eucalyptol] yielded an IC50 (recombinant O.lotOBP6; O.lotOBP6/1-NPN complex 2 μM) of 2.06 ± 0.05 µM, a Ki (recombinant O.lotOBP6; [2]) of 850 ± 20 nM and a Ki (recombinant O.lotOBP6; [3]) of under 10000 nM.

For `C=CC(C)(O)CCC=C(C)C` (centres unmarked) [Linalool], the IC50 (recombinant O.lotOBP6; O.lotOBP6/1-NPN complex 2 μM) was 6.92 ± 0.24 µM, the Ki (recombinant O.lotOBP6; [2]) was 2860 ± 100 nM and the Ki (recombinant O.lotOBP6; [3]) was under 10000 nM.

`CCCCCCCCC=O` [Nonanal] gave an IC50 (recombinant O.lotOBP6; O.lotOBP6/1-NPN complex 2 μM) of 1.4 ± 0.09 µM, a Ki (recombinant O.lotOBP6; [2]) of 580 ± 40 nM and a Ki (recombinant O.lotOBP6; [3]) of under 10000 nM.

Work on `O=Cc1ccccc1O` [Salicylaldehyde] yielded an IC50 (recombinant O.lotOBP6; O.lotOBP6/1-NPN complex 2 μM) of 1.1 ± 0.01 µM, a Ki (recombinant O.lotOBP6; [2]) of 450 nM and a Ki (recombinant O.lotOBP6; [3]) of under 10000 nM.

Molecule `CCCCCCCCCCCCC` [Tridecane] has an IC50 (recombinant O.lotOBP6; O.lotOBP6/1-NPN complex 2 μM) of 2.6 ± 0.44 µM, a Ki (recombinant O.lotOBP6; [2]) of 1070 ± 180 nM and a Ki (recombinant O.lotOBP6; [3]) of under 10000 nM.

Work on `Cc1cccc(C)c1` [m-Xylene] yielded an IC50 (recombinant O.lotOBP6; O.lotOBP6/1-NPN complex 2 μM) of 8.41 ± 0.31 µM, a Ki (recombinant O.lotOBP6; [2]) of 3470 ± 130 nM and a Ki (recombinant O.lotOBP6; [3]) of under 10000 nM.

With `COc1ccc(C=O)cc1` [p-Anisaldehyde] the IC50 (recombinant O.lotOBP6; O.lotOBP6/1-NPN complex 2 μM) was 4.59 ± 0.64 µM, the Ki (recombinant O.lotOBP6; [2]) was 1890 ± 260 nM and the Ki (recombinant O.lotOBP6; [3]) was under 10000 nM.

`C=C(C)C1CCC(C)C(=O)C1` (centres unmarked) [p-Menth-8-en-2-one] gave an IC50 (recombinant O.lotOBP6; O.lotOBP6/1-NPN complex 2 μM) of 0.34 ± 0.03 µM, a Ki (recombinant O.lotOBP6; [2]) of 140 ± 10 nM and a Ki (recombinant O.lotOBP6; [3]) of under 10000 nM. For the same molecule, the “Response of female adult O. loti in Y-tube olfactometer” value (adult O. loti; female adults) was “significantly attracted” and the “Response of male adult O. loti in Y-tube olfactometer” value (adult O. loti) was “significantly attracted”.

With `CC1=CCC2CC1C2(C)C` (stereo not drawn) [α-Pinene] the IC50 (recombinant O.lotOBP6; O.lotOBP6/1-NPN complex 2 μM) was over 50 µM.

Source: publication PMC10048907, “Antennal Transcriptome Analysis of Olfactory Genes and Characterization of Odorant Binding Proteins in Odontothrips loti (Thysanoptera: Thripidae)” (International Journal of Molecular Sciences, 2023)
